US9951115B2, “CGRP agonist peptides” (priority 2013, dated 2018)
Bridge positions count the residues as written; N and C are the ends. Peptide text beside a SMILES is read from it.

Legend:
[1] = target: T1, CALCRL:RAMP3 (adrenomedullin 2 (AM2) receptor) (Homo sapiens, UniProt O60896+Q16602); assay: CALCRL:RAMP3 CRE-bla Freestyle 293F agonist screen (adrenomedullin 2 receptor); type: cell-based; conditions: CALCRL:RAMP3-CRE-bla Freestyle 293F cells, 5 hours incubation, FIG. 2
T1 construct: host or cells: Freestyle 293F (CRE-bla reporter line)
T1 sequence (Q16602 23-461): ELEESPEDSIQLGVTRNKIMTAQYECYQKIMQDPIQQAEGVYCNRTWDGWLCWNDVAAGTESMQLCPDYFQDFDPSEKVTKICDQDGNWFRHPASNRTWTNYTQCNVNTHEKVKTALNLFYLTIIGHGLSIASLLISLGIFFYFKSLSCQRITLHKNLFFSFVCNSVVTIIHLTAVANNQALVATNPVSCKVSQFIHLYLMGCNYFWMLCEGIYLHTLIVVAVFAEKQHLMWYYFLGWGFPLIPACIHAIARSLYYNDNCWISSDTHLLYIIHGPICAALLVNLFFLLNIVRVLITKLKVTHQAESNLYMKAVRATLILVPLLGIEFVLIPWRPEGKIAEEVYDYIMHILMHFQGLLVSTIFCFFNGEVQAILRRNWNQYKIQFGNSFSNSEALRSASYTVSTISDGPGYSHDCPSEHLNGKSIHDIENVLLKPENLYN
T1 sequence (O60896 24-148): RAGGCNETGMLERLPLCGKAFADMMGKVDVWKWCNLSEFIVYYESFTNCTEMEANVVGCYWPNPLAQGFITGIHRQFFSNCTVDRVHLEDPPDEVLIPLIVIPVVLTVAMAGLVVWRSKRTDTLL
Experimental: Cell-based GPCR Profiling Assays. A representative CGRP agonist peptide according to the present invention, ACX017 (SEQ ID NO:1), was profiled against G-Protein Coupled Receptors (GPCRs) in cell-based assays to determine its agonist activity and dose response. Assays were performed using the SelectScreen® Cell-based GPCR Profiling Services by Life Technologies, Carlsbad, Calif.
CALCRL:RAMP3—CRE-bla Freestyle 293F—Agonist Screen (Adrenomedullin 2 Receptor)
CALCRL:RAMP3-CRE-bla Freestyle 293F cells were thawed and resuspended in Assay Media (DMEM, 10% dialyzed FBS, 25 mM HEPES pH 7.3, 0.1 mM NEAA, 100 U/mL/100 μg/mL Pen/Strep) to a concentration of 312,500 cells/mL. 32 μL of cell suspension (10,000 cells) was added to each well of a 384-well Poly-D-Lysine assay plate. Cells in Assay Media were incubated for 16-24 hours in the plate at 37° C./5% CO2 in a humidified incubator. 4 μL of a 10× serial dilution of Adrenomedullin or ACX017 were added to appropriate wells of the plate. […] The plate was read on a fluorescence plate reader. […]
Cell-free Control. […] It was used to determine the background fluorescence for both coumarin and fluorescein wavelengths. […]
Known Agonist. A known agonist titration was run on every plate for each cell-line to ensure the cell line was activated within an expected EC50/IC50 range as previously determined.

[2] = tested on: Sprague Dawley rats, food intake; assay: Four-day food intake study; type: in vivo, rat; conditions: male Sprague Dawley rats on 60% kcal fat diet, 150 μg/kg intraperitoneal once daily for four days, food intake at 2, 4, 6, 8 hours post dose
Experimental: Food Intake Study. The effect of a CGRP agonist, in accordance with the present invention, on food intake over time both within and across several days of treatment was evaluated. Study was performed by Explora BioLabs, San Diego, Calif. and animals treated in accordance with its IACUC standards.
On Day 0, 12 animals were randomized into two groups, Test and Control, to obtain similar body weight averages between groups. Animals were dosed via a single intraperitoneal injection, with either ACX017 (SEQ. ID NO:1) (Test group) or vehicle (Control group) each day, for four days. On each day, dosing was performed in the hour prior to the end of the light phase. ACX017 was dosed at 150 μg/kg in a 10% DMSO aqueous solution. Both ACX017 and vehicle were delivered as 1 mL/kg doses.
Food consumption was measured pre-dose and at 2, 4, 6 and 8 hours post dose. Food intake was measured by weighing food hoppers on Days 1, 2, 3 and four in the hour before end of the light phase and at 2, 4, 6 and 8 hours post dosing.
Average food intake for each of the Test and Control groups at each time point post dosing was determined. Cumulative food intake for each group over the entire test period (8 hours) is provided in graph form in FIGS. 1-4 for each of Days 1-4, respectively.

With `CC(C)C[C@H](NC(=O)[C@H](CCCNC(=N)N)NC(=O)CNC(=O)[C@H](CC(C)C)NC(=O)[C@@H](NC(=O)[C@@H]1CSSC[C@H](NC(=O)[C@H](C)N)C(=O)N[C@@H](CC(=O)O)C(=O)N[C@@H]([C@@H](C)O)C(=O)N[C@@H](C)C(=O)N[C@@H]([C@@H](C)O)C(=O)N1)C(C)C)C(=O)N[C@@H](CO)C(=O)N[C@@H](CCC(N)=O)C(=O)N[C@@H](CCC(=O)O)C(=O)N[C@@H](CC(C)C)C(=O)N[C@@H](Cc1c[nH]cn1)C(=O)N[C@@H](CCCNC(=N)N)C(=O)N[C@@H](CC(C)C)C(=O)N[C@@H](CCC(N)=O)C(=O)N[C@H](C(=O)N[C@@H](Cc1ccc(O)cc1)C(=O)N1CCC[C@H]1C(=O)N[C@@H](CCCNC(=N)N)C(=O)N[C@H](C(=O)N[C@@H](CC(N)=O)C(=O)N[C@H](C(=O)NCC(=O)N[C@@H](CO)C(=O)N[C@@H](CCCCN)C(=O)N[C@@H](C)C(=O)N[C@@H](Cc1ccccc1)C(N)=O)C(C)C)[C@@H](C)O)[C@@H](C)O` [ACX017] (H-ACDTATCVLGRLSQELHRLQTYPRTNVGSKAF-NH2; disulfide 2-7) the “activation of the adrenomedullin 2 (AM2) receptor” value [1] was “did not activate the adrenomedullin 2 (AM2) receptor” and the “appetite suppression (reduced food intake compared to Control group)” value [2] was “suppressed appetite in the Test group for at least about four hours after dosing”.
